Data from patent US10864211B2, “Hydroxy isoxazole compounds useful as GPR120 agonists” (Merck Sharp & Dohme Corp., priority 2016, dated 2020).
Where a name gives a salt, the structure may show the parent alone.

Biological target: T1, rat GPR120 (Rattus norvegicus, UniProt Q2AC31)
T1 construct: expressed in transfected cells; host or cells: HEK293
T1 sequence (Q2AC31 1-361): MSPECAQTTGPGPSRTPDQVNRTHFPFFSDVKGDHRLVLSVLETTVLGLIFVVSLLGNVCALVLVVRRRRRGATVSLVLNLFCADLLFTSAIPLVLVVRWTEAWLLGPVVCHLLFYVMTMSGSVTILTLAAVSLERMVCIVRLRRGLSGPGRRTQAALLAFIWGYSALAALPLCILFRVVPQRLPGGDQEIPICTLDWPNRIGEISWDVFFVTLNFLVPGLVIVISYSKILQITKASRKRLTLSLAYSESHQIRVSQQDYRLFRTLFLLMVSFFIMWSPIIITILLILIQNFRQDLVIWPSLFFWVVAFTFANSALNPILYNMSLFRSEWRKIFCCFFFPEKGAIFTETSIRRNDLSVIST
Test: Rat GPR120 IP1 assay (inositol phosphate turnover)
Format: cell-based
Settings: IP1 accumulation in HEK293 cells stably expressing rat GPR120
Description: The binding of small molecule agonists to the G-protein-coupled receptor GPR120 activates phospholipase C, and leads to the generation of inositol 1,4,5-trisphosphate (InsP3 or IP3). IP3 is subsequently de-phosphorylated to IP1, which accumulates in cells and is stable in the presence of lithium chloride.
In the present method, agonist-induced activation of the human and rat GPR120 receptor was monitored by measuring the accumulation of IP1 in CHO-K1 cells that were stably expressing the short form of human GPR120 (Accession #NM_001195755) or HEK293 cells stably expressing rat GPR120 (Accession #NM_001047088). Following agonist addition, GPR120 activation and subsequent accumulation of IP1 was measured using a homogeneous Time Resolved Fluorescence-based ELISA commercially available from CisBio (IP-one ELISA Kit). The IP-One ELISA was a competitive immunoassay which uses IP1 labeled with […] and a terbium cryptate-labeled anti-IP1 monoclonal antibody. […] The signal loss was then back calculated to IP1 concentration using an IP1 standard curve. Determination of IP1 concentration was a direct measure of GPR120 activation and was used to determine compound potency (EC50).
Human GPR120 stable cell-lines were generated in CHO cells. The expression plasmids were transfected using lipofectamine (Life Technologies) following manufacturer's instructions. Stable cell-lines were generated following drug selection and single cell cloning. Rat GPR120 stable cell-lines were generated in HEK cells using the Jump-In™ cell engineering platform (Life Technologies) following manufacturer's instructions. Stable cell-lines were generated following drug selection and single cell cloning.
The assay was performed in 384-well format. CHO cells stably expressing human GPR120 were plated at 20,000 cells per well in growth medium (DMEM/F12, 10% fetal calf serum). HEK293 cells stably expressing rat GPR120 were plated at […] per well in growth medium (DMEM, 10% fetal calf serum). Cell plates were then incubated 16 hours at 37 degrees in a 5% CO2 incubator. Measurement of Inositol Phosphate Turnover (IP1) was performed using the CisBio IP-One kit (Part number 62IPAPEB). After the 16 hour incubation, the growth media was removed by centrifugation using the BlueWasher (AusWasher GUI Ver. v1.0.1.8) Protocol #21-“Light Dry” and 10 μl of stimulation buffer (prepared as described in the kit) was added to each well. In a separate plate, compounds were diluted in DMSO (200-fold over the final concentration in the assay well) and 50 nl was acoustically transferred to the appropriate well in the assay cell plate. The plates were then incubated for 60 minutes at 37 degrees in a 5% CO2 incubator. 10 μl of detection buffer (also prepared as described in the IP-One kit) was added to each well and the plates were incubated at room temperature for 60 minutes in the dark. The plates were then read in a Perkin ElmerEnVision or equivalent reader able to measure FRET. Fluorescent ratio of emission at 665 and 620 nm was then converted to the IP1 concentration by back calculating from an IP1 standard curve prepared at the time of the assay. The data was normalized to % activity using a reference compound, and the EC50 values were determined using a standard 4-parameter fit.

| Compound | EC50 [nM] |
| --- | --- |
| Oc1cc(-c2ccc(O[C@H]3C[C@](F)(c4ccnc(OC5CCC5)c4)C3)nc2)on1 [Example 87, sodium 5-[6-({cis-3-[2-(cyclobutyloxy)pyridin-4-yl]-3-fluorocyclobutyl}oxy)pyridin-3-yl]isoxazol-3-olate] | 4.7 |
| Oc1cc(-c2ccc(O[C@H]3C[C@@](F)(c4ccnc(OC5CCC5)c4)C3)nc2)on1 [Example 88, 2-(cyclobutyloxy)-4-(trans-1-fluoro-3-{[5-(3-hydroxyisoxazol-5-yl)pyridinium-2-yl]oxy}cyclobutyl)pyridinium bis(trifluoroacetate)] | 42.2 |
| CCOc1cc([C@]2(F)C[C@@H](Oc3cnc(-c4cc(O)no4)cn3)C2)ccn1 [Example 94, 5-(5-{[cis-3-(2-ethoxypyridin-4-yl)-3-fluorocyclobutyl]oxy}pyrazin-2-yl)isoxazol-3-ol] | 890 |
| Oc1cc(-c2cnc(O[C@H]3C[C@@](F)(c4ccnc(OC5CCC5)c4)C3)cn2)on1 [Example 95, 5-[5-({trans-3-[2-(cyclobutyloxy)pyridin-4-yl]-3-fluorocyclobutyl}oxy)pyrazin-2-yl]isoxazol-3-ol] | 18 |
| Oc1cc(-c2cnc(O[C@H]3C[C@](F)(c4ccnc(OC5CCC5)c4)C3)cn2)on1 [Example 96, sodium 5-[5-({cis-3-[2-(cyclobutyloxy)pyridin-4-yl]-3-fluorocyclobutyl}oxy)pyrazin-2-yl]isoxazol-3-olate] | 33 |
| Oc1cc(-c2cnc(O[C@H]3C[C@@](F)(c4nc(C(F)(F)F)cs4)C3)cn2)on1 [Example 102, ammonium 5-[5-({trans-3-fluoro-3-[4-(trifluoromethyl)-1,3-thiazol-2-yl]cyclobutyl}oxy)pyrazin-2-yl]isoxazol-3-olate] | 1160 |

More lines, now with the values ahead:

| EC50 [nM] | Compound |
| --- | --- |
| 1.8 | Oc1cc(-c2cnc(O[C@H]3C[C@H](Oc4cccc(OC(F)(F)F)c4)C3)cn2)on1 [Example 61, sodium 5-[5-({trans-3-[3-(trifluoromethoxy)phenoxy]-cyclobutyl}oxy)pyrazin-2-yl]isoxazol-3-olate] |
| 36 | Oc1cc(-c2cnc(O[C@H]3C[C@](F)(c4ccnc(OC5CC5)c4)C3)cn2)on1 [Example 91, ammonium 5-[5-({cis-3-[2-(cyclopropyloxy)pyridin-4-yl]-3-fluoro-cyclobutyl}oxy)pyrazin-2-yl]isoxazol-3-olate] |
| 1.1 | Oc1cc(-c2ccc(O[C@H]3C[C@H](c4ccc(Cl)cc4)C3)cn2)on1 [Example 110, 5-{[trans-3-(4-chlorophenyl)cyclobutyl]oxy}-2-(3-hydroxyisoxazol-5-yl)pyridinium trifluoroacetate] |
| 0.8 | Oc1cc(-c2ccc(O[C@H]3C[C@@H](c4ccc(Cl)cc4)C3)cn2)on1 [Example 111, 5-{[cis-3-(4-chlorophenyl)cyclobutyl]oxy}-2-(3-hydroxyisoxazol-5-yl)pyridinium trifluoroacetate] |
| 5.8 | Oc1cc(-c2cnc(O[C@H]3C[C@H](c4ccc(Cl)cc4)C3)nc2)on1 [Example 115, 5-(2-{[trans-3-(4-chlorophenyl)cyclobutyl]oxy}pyrimidin-5-yl)isoxazol-3-ol] |
